This is an account of results in ChEMBL document CHEMBL5291721, “A preclinical secondary pharmacology resource illuminates target-adverse drug reaction associations of marketed drugs” (Nat Commun, 2023).

Test [1] has as its target Beta-2 adrenergic receptor (Homo sapiens, UniProt P07550).
Test [2] addresses T1, 5-hydroxytryptamine receptor 1A (Homo sapiens, UniProt P08908).
T1 sequence (P08908 whole entry): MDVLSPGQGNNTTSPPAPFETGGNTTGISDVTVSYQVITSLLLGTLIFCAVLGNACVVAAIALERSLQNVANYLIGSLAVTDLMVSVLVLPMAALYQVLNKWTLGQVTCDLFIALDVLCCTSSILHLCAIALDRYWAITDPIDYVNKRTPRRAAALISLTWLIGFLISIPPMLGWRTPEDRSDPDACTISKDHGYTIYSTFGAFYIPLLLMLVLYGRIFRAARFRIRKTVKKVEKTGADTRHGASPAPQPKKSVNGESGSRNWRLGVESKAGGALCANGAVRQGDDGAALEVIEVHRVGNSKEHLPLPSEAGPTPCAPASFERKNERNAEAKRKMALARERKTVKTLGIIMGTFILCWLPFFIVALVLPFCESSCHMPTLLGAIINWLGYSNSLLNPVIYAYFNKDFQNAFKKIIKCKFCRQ
The class given is functional, cell-based.

Test [3] has as its target Histamine H3 receptor (Homo sapiens, UniProt Q9Y5N1).
Test [4] deals with T2, Glucocorticoid receptor (Homo sapiens, UniProt P04150).
T2 sequence (P04150 whole entry): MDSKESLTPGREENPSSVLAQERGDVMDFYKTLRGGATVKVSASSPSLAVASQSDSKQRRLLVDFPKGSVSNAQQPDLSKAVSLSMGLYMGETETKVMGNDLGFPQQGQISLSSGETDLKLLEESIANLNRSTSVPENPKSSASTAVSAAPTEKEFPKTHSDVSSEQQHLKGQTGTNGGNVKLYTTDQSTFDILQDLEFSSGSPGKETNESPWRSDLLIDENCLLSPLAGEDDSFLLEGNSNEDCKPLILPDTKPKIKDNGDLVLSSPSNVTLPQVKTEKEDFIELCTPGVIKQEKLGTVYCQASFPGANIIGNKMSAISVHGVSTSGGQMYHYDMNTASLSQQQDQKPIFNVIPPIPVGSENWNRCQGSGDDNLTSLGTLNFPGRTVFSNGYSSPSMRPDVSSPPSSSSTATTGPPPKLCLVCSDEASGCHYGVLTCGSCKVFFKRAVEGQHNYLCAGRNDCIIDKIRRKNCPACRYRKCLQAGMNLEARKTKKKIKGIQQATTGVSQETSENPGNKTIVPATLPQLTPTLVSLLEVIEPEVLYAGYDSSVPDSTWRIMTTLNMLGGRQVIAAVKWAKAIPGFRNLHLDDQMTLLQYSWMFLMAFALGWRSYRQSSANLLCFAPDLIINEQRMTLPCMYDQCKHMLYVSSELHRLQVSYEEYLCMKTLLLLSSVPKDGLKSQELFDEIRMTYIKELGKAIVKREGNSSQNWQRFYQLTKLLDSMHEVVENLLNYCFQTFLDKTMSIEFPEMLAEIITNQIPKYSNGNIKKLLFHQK

Test [5] has as its target Voltage-dependent L-type calcium channel subunit alpha-1C (Rattus norvegicus, UniProt P22002). Type of test: functional.
For test [6], the target named is T3, Gamma-aminobutyric acid receptor subunit alpha-1 (Rattus norvegicus, UniProt P62813). Type of test: functional.
T3 sequence (P62813 whole entry): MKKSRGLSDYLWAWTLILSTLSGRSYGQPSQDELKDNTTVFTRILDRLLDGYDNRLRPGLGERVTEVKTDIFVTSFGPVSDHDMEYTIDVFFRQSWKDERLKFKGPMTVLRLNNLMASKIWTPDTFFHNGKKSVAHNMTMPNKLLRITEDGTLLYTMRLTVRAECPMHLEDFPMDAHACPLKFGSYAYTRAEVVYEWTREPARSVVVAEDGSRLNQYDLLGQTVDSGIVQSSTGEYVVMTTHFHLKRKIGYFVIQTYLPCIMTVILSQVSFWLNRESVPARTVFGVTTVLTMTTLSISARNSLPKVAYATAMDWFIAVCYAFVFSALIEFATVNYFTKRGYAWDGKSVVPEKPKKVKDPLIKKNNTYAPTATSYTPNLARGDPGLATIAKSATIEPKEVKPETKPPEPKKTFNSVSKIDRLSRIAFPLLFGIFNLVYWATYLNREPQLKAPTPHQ
Test [7] concerns the target T3, Gamma-aminobutyric acid receptor subunit alpha-1.
Test [8] has as its target T4, Muscarinic acetylcholine receptor M2 (Homo sapiens, UniProt P08172).
T4 sequence (P08172 whole entry): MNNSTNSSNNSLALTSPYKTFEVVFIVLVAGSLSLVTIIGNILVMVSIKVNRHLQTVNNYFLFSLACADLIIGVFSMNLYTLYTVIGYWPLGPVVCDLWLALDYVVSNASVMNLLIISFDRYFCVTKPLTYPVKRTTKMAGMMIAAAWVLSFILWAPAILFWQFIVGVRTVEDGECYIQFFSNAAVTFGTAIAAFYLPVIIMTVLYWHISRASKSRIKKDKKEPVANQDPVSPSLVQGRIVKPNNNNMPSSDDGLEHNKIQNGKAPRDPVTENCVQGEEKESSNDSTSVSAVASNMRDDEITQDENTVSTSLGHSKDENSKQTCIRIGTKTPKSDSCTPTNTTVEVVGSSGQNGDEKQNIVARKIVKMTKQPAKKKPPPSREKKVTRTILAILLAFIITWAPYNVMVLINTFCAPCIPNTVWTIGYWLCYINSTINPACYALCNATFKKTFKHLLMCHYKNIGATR
Type of test: functional, cell-based.

The target of test [9] is Adenosine receptor A2a (Homo sapiens, UniProt P29274).
Adenosine receptor A2a, sequence (P29274 whole entry): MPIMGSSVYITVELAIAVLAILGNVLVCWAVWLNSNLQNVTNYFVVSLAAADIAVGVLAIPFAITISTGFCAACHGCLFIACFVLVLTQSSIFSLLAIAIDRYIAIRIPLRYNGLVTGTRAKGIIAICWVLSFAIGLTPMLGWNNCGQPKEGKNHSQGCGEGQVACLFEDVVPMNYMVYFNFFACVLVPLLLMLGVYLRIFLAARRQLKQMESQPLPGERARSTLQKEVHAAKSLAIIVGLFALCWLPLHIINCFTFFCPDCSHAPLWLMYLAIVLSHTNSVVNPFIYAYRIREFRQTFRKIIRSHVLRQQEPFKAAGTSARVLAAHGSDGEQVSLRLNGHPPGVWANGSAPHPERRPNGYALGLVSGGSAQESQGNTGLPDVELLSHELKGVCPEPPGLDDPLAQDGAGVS
Test [10] concerns the target T5, Progesterone receptor (Homo sapiens, UniProt P06401).
T5 sequence (P06401 whole entry): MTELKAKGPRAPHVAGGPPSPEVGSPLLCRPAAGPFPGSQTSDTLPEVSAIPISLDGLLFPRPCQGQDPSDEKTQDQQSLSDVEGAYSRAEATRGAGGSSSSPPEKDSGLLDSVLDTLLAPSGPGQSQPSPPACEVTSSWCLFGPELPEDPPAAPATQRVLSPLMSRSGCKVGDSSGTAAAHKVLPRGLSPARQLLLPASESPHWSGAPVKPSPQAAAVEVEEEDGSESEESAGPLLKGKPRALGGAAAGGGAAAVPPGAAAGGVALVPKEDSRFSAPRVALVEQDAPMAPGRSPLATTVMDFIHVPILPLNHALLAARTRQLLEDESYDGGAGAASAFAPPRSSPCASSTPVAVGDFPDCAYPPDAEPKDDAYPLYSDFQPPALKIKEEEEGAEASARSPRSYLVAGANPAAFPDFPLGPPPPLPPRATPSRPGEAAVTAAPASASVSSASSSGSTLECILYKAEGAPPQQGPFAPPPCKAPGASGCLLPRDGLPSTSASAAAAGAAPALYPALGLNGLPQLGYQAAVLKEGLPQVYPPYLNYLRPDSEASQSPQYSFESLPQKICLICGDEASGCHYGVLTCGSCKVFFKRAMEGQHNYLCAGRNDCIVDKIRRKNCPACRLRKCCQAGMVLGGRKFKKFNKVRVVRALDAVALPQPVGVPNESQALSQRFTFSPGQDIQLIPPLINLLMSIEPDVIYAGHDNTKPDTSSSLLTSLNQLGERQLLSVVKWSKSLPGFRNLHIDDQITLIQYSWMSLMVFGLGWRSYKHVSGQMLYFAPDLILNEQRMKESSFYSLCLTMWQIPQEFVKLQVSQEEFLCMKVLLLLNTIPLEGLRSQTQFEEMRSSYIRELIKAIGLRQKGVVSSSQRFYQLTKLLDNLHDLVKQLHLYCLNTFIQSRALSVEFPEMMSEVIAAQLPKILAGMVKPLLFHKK
Type of test: functional.

For test [11], the target named is Growth hormone secretagogue receptor type 1 (Homo sapiens, UniProt Q92847).
Growth hormone secretagogue receptor type 1, sequence (Q92847 whole entry): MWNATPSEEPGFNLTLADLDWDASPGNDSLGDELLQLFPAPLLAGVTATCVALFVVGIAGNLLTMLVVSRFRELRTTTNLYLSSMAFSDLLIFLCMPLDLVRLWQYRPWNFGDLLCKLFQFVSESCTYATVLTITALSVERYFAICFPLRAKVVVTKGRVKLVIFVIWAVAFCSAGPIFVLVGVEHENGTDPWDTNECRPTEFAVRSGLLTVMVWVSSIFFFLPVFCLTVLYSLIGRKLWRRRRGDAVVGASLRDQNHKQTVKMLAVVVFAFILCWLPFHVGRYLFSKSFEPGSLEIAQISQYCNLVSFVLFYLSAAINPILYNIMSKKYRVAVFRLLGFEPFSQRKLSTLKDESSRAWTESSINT

In general, AC50 refers to the concentration giving half of the maximal activity seen.
Further: assay procedure not described here.

Beta-2 adrenergic receptor, sequence (P07550 whole entry): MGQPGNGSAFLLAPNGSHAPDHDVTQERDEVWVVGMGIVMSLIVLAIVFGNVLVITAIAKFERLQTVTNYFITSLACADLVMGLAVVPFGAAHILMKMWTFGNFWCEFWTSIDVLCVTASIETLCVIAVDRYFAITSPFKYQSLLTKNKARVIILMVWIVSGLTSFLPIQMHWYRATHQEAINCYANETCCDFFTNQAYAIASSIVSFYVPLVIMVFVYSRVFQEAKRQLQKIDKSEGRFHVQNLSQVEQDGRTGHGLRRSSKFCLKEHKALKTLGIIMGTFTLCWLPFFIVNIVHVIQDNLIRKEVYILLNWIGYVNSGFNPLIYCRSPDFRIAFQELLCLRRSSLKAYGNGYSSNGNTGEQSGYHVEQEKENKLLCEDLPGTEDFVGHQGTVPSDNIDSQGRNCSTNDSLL
Histamine H3 receptor, sequence (Q9Y5N1 whole entry): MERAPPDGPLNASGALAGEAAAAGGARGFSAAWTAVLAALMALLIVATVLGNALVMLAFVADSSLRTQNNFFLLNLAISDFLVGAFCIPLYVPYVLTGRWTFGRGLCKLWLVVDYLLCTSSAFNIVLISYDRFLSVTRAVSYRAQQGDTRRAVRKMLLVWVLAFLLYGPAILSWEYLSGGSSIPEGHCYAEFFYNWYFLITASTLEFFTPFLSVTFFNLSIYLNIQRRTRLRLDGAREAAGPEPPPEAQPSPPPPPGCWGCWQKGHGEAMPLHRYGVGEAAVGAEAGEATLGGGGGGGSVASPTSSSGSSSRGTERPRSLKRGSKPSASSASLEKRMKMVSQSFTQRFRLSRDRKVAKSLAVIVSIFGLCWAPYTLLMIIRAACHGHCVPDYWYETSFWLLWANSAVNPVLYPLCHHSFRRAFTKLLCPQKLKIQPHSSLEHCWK
Voltage-dependent L-type calcium channel subunit alpha-1C, sequence (P22002 whole entry): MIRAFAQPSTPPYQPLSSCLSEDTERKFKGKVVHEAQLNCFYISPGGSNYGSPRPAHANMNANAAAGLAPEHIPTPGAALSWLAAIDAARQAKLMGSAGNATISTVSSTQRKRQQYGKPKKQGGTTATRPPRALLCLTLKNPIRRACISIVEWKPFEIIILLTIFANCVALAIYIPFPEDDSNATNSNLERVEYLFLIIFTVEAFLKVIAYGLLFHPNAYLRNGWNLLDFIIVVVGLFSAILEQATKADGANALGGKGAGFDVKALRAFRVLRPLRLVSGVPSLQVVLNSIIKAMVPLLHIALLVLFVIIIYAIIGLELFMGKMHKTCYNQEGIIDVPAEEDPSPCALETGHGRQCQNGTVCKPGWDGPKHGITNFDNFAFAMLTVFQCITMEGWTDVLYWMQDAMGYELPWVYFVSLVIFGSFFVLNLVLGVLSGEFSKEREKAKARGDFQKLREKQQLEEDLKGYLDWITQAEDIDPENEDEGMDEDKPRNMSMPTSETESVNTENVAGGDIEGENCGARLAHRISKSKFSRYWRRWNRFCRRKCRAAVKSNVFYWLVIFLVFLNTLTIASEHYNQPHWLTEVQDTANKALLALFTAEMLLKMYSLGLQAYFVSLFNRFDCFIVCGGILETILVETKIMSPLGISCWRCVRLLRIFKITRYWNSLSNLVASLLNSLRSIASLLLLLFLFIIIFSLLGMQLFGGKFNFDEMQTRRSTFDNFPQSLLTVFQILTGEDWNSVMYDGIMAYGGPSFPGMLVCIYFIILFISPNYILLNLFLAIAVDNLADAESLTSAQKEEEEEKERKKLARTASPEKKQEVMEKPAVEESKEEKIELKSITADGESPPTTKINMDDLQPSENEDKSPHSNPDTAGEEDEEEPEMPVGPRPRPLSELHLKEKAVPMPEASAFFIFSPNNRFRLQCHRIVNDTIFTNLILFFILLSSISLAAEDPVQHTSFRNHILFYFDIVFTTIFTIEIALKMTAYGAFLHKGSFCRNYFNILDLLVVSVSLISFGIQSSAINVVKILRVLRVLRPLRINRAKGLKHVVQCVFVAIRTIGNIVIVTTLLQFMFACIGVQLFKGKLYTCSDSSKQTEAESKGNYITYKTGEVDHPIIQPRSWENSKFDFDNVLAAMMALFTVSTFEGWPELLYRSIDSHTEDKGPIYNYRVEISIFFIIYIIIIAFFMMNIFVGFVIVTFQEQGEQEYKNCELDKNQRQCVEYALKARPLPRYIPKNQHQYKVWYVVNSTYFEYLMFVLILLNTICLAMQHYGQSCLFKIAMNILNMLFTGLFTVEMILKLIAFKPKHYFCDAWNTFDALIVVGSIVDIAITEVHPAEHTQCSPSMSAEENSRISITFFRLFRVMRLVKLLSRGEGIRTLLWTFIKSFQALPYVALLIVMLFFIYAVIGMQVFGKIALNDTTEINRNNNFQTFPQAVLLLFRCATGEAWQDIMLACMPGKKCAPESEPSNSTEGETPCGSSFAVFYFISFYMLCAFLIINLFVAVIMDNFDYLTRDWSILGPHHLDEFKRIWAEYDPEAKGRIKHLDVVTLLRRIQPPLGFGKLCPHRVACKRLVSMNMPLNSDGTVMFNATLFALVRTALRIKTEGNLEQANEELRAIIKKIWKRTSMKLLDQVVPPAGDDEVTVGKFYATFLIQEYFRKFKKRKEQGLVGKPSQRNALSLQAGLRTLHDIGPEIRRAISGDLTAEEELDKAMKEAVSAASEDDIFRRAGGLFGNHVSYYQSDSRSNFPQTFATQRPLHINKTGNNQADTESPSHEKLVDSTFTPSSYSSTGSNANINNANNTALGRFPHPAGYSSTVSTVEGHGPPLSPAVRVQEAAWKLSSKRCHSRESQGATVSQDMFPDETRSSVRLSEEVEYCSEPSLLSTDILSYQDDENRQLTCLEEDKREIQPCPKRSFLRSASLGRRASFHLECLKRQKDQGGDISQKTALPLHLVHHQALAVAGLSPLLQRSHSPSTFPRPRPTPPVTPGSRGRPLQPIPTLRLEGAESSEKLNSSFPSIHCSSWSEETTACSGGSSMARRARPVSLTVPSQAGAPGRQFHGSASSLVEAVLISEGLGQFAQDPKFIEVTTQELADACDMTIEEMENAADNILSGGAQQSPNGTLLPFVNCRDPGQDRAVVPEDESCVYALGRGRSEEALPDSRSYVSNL

As for `CC(C(=O)O)c1ccc(N2Cc3ccccc3C2=O)cc1` (stereo unspecified) [INDOPROFEN], the half-maximal activity concentration (AC50) in [1], in [2], in [3], in test [4], in test [5] and in test [6] was more than 30 µM each time. The AC50 in [7], in test [8], in test [9], in test [10] and in [11] was more than 30 µM throughout.

For the compound `CC(Oc1c(Cl)cccc1Cl)C1=NCCN1` (stereo unspecified) [LOFEXIDINE], the AC50 is more than 30 µM in test [1]; 1.1 µM in [2]; more than 30 µM in [3]; more than 30 µM in test [4]; more than 30 µM in test [5]; more than 30 µM in [6]. Also, the AC50 in [7], in test [8], in test [9], in [10] and in test [11] was more than 30 µM throughout.

Regarding `CN1C(=O)C(O)N=C(c2ccccc2Cl)c2cc(Cl)ccc21` (stereo unspecified) [LORMETAZEPAM], the AC50 in test [1] was more than 30 µM; in [2], more than 30 µM; in [3], more than 30 µM; in test [4], more than 30 µM; in [5], more than 30 µM; in [6], 0.0014 µM. For the same compound, the half-maximal activity concentration (AC50) in test [7] was more than 30 µM; in test [8] it was 17 µM; in [9], more than 30 µM; in [10] it was more than 30 µM; in test [11] it was more than 30 µM.

As to `CC(C)=CCC/C(C)=C/C=C/C(C)=C/C=C/C(C)=C/C=C/C=C(C)/C=C/C=C(C)/C=C/C=C(\C)CCC=C(C)C` [LYCOPENE], the AC50 in test [1], in test [2], in test [3], in test [4], in test [5] and in test [6] was more than 30 µM in each case. Besides, the AC50 is more than 30 µM in [7]; more than 30 µM in test [8]; more than 30 µM in test [9]; 6.2 µM in test [10]; more than 30 µM in test [11].

In the case of `Cc1cccc(C(C)c2cnc[nH]2)c1C` (stereo unspecified) [MEDETOMIDINE], the AC50 was more than 30 µM in test [1]; more than 30 µM in test [2]; more than 30 µM in test [3]; more than 30 µM in [4]; more than 30 µM in [5]; more than 10 µM in test [6]. Also, the half-maximal activity concentration (AC50) is more than 10 µM in [7]; more than 10 µM in [8]; more than 30 µM in test [9]; more than 30 µM in test [10]; more than 30 µM in [11].

Take `CCOC(=O)[N-]c1cn(N2CCOCC2)n[o+]1` [MOLSIDOMINE]: the AC50 in test [1], in [2], in test [3], in test [4], in [5] and in test [6] was more than 30 µM each time. Further, the AC50 in test [7], in test [8], in test [9], in test [10] and in [11] was more than 30 µM each time.

Turning to `OC(CNCC(O)C1CCc2cc(F)ccc2O1)C1CCc2cc(F)ccc2O1` (stereo unspecified) [NEBIVOLOL], the half-maximal activity concentration (AC50) in test [1] was 0.07 µM; in test [2] it was 1.6 µM; in test [3] it was 23 µM; in [4], more than 30 µM; in test [5], 24 µM; in test [6], more than 30 µM. In addition, the AC50 was more than 30 µM in [7]; more than 30 µM in [8]; more than 30 µM in test [9]; more than 30 µM in test [10]; 4.6 µM in test [11].

For the compound `COc1ccc2c3c1O[C@H]1C(=O)CC[C@@]4(O)[C@@H](C2)N(C)CC[C@]314` [OXYCODONE], the concentration at half-maximal activity (AC50) in test [1], in test [2], in [3], in [4], in test [5] and in test [6] was more than 30 µM each time. In addition, the concentration at half-maximal activity (AC50) in test [7], in test [8], in test [9], in test [10] and in test [11] was more than 30 µM throughout.

Regarding `CCCN(CCC)C(=O)C(CCC(=O)O)NC(=O)c1ccccc1` (stereo unspecified) [PROGLUMIDE], the AC50 in [1] was more than 30 µM; in [2], more than 10 µM; in test [3] it was more than 30 µM; in test [4] it was more than 30 µM; in test [5], more than 10 µM; in test [6] it was more than 10 µM. The AC50 in test [7] was more than 10 µM; in test [8] it was more than 10 µM; in [9], more than 30 µM; in test [10], more than 30 µM; in test [11], more than 30 µM.

On to `C=CCC1(C(C)CC)C(=O)NC(=O)NC1=O` (stereo unspecified) [TALBUTAL], for which the AC50 in [1], in test [2], in [3], in test [4], in [5] and in [6] was more than 10 µM in each case. Besides, the AC50 in test [7], in test [8], in test [9], in test [10] and in [11] was more than 10 µM throughout.

As for `COc1cc2c(N)nc(N3CCN(C(=O)OCC(C)(C)O)CC3)nc2c(OC)c1OC` [TRIMAZOSIN], the AC50 in test [1], in test [2], in [3], in [4], in [5] and in [6] was more than 30 µM throughout. Also, the half-maximal activity concentration (AC50) in test [7], in test [8], in test [9], in [10] and in [11] was more than 30 µM throughout.
